Measurements published in patent publication US20240358705A1, “COMPOSITIONS AND METHODS FOR TREATMENT OF CANCER” (Board of Supervisors of Louisiana State University and …, priority 2021, published 2024).

Assays:
CD3 T cells [1] = experiment: Granzyme B and perforin immunoblot; type: cell-based, mouse; settings: for granzyme B protein production, increase compared to DMSO / granzyme B, Log2 fold change compared to DMSO / perforin production, increase compared to DMSO / perforin, Log2 fold change compared to DMSO: 72 hours
Procedure: (§1) Lymph nodes and spleen were isolated from wild-type C57BL/6N mice. Tissue was mechanically dissociated with the back of a syringe plunger and passed through a 70 M filter. […] Treated cells were incubated at 37° C., 5% CO2 for the designed study duration.

OT-I CD8 T cells = experiment: In vitro cytotoxicity assay (E.G7-OVA target cells); type: cell-based, mouse; settings: CD8 T cells treated 72 hours (10 μM printed for GLPG1205)
Procedure: Lymph nodes and spleen were isolated from wild-type C57BL/6N mice. Tissue was mechanically dissociated with the back of a syringe plunger and passed through a […]. […] Treated cells were incubated at 37° C., 5% CO2 for the designed study duration. Treated OT-I CD8 T cells were prepared following the in vitro T cell activation method. Non-target EL4 cells (CFSE low—0.2 μM) and target E.G7-OVA cells (CFSE high—[…]) were prepared following the CFSE labeling protocol. Cells were subsequently washed, pelleted, resuspended at 1×10^6 cells/ml, and mixed at 1:1 ratio. 100 μl of the mixed cells were plated into a 96-well flat bottom plate.

CD8 T cells [2] = experiment: Annexin/PI apoptosis staining, CD8; type: cell-based, mouse; settings: 3 μM or 10 μM, 72 hours, vs DMSO
Procedure: as §1
Treated CD3 T cells were prepared following the in vitro T cell activation method and incubated for 72 hours at 37° C., 5% CO2.

CD8 T cells [3] = experiment: CD8 T cell activation markers by flow cytometry; type: cell-based, mouse; settings: 72 hours
Procedure: as §1, with “duration. […] After staining, cells were pelleted, resuspended and run by a BD FACSymphony A3 flow cytometer.” for “duration.”

CD4 T cells [4] = experiment: CD4 T cell activation markers by flow cytometry; type: cell-based, mouse; settings: 72 hours
Procedure: as §1, with “duration. […] After staining, cells were pelleted, resuspended and run by a BD FACSymphony A3 flow cytometer.” for “duration.”

CD3 T cells [5] = experiment: Cytokine/chemokine quantification (Milliplex); type: cell-based, mouse; settings: 72 hours
Procedure: Lymph nodes and spleen were isolated from wild-type C57BL/6N mice. Tissue was mechanically dissociated with the back of a syringe plunger and passed through a […] filter. […] Treated cells were incubated at 37° C., 5% CO2 for the designed study duration. […] Culture supernatant was harvested and clarified by centrifugation at 2000 RPMI for five minutes. […] Cytokines and chemokines were quantified using a Milliplex mouse cytokine/chemokine magnetic bead panel (Millipore […]32) on a Luminex MAGPIX system with undiluted samples following the manufacturer's instructions.

CD8 T cells [6] = experiment: CD8 T cell differentiation by flow cytometry; type: cell-based, mouse; settings: 72 hours
Procedure: as §1, with “duration. […] After staining, cells were pelleted, resuspended and run by a BD FACSymphony A3 flow cytometer.” for “duration.”

CD4 T cells [7] = experiment: CD4 T cell differentiation by flow cytometry; type: cell-based, mouse; settings: 72 hours; for naïve CD4 T cell compartment, reduction vs DMSO: trend not found to be significant
Procedure: as §1, with “duration. […] After staining, cells were pelleted, resuspended and run by a BD FACSymphony A3 flow cytometer.” for “duration.”

CD8 T cells [8] = experiment: 2-NBDG glucose analog uptake assay; type: cell-based, mouse; settings: 72 hours
Procedure: as §1
Treated CD3 T cells were prepared following the in vitro T cell activation method and incubated for 72 hours at 37° C., 5% CO2. […] (Thermo #N13195) Cells were then incubated for one hour at 37° C., 5% CO2. After incubation, T cells were washed, pelleted and stained with anti-CD4, anti-CD8, anti-CD3 following the immune profiling by flow cytometry method. Percent uptake was calculated using mean fluorescent intensity (MFI).

[9] = tested on: cytochrome family of enzymes; settings: cited from earlier work
[10] = three separate models of NASH; cited from earlier work

O=c1nc(OC[C@@H]2COCCO2)cc2n1CCc1cc(C#CC3CC3)ccc1-2 [GLPG1205, 9-Cyclopropylethynyl-2-((S)-1-[1,4]dioxan-2-ylmethoxy)-6,7-dihydropyrimido[6,1-a]isoquinolin-4-one]
granzyme B protein production, increase compared to DMSO (CD3 T cells [1]; 3 μM): 3.57 times
granzyme B, Log2 fold change compared to DMSO (CD3 T cells [1]; 3 μM): 1.84 Log2 fold change
perforin production, increase compared to DMSO (CD3 T cells [1]; 3 μM): 3.09 times
perforin, Log2 fold change compared to DMSO (CD3 T cells [1]; 3 μM): 1.62 Log2 fold change
granzyme B protein production, increase compared to DMSO (CD3 T cells [1]; 10 μM): 4.04 times
granzyme B, Log2 fold change compared to DMSO (CD3 T cells [1]; 10 μM): 2.01 Log2 fold change
perforin production, increase compared to DMSO (CD3 T cells [1]; 10 μM): 3.86 times
perforin, Log2 fold change compared to DMSO (CD3 T cells [1]; 10 μM): 1.95 Log2 fold change
expression of Granzyme B and Perforin (western blot) (CD3 T cells [1]; activated T cells, high doses (FIG. 5)): dramatically increases the expression of Granzyme B and perforin
killing capacity compared to DMSO control (percent specific lysis) (OT-I CD8 T cells): significantly improved killing capacity
CD8 apoptosis (Annexin/PI) (CD8 T cells [2]): significantly reduced CD8 apoptosis
CD25 expression, increase vs DMSO (CD8 T cells [3]; 3 μM): 21%
CD69 expression, increase vs DMSO (CD8 T cells [3]; 3 μM): 11.24%
CTLA-4, increase vs DMSO (CD8 T cells [3]; 3 μM): 50.31%
LAG-3, increase vs DMSO (CD8 T cells [3]; 3 μM): 11.72%
PD-1, increase vs DMSO (CD8 T cells [3]; 3 μM): 10.02%
intracellular IFNγ, increase vs DMSO (CD8 T cells [3]; 3 μM): 51.23%
CD25 expression, increase vs DMSO (CD8 T cells [3]; 10 μM): 25.58%
CD69 expression, increase vs DMSO (CD8 T cells [3]; 10 μM): 14.59%
CTLA-4, increase vs DMSO (CD8 T cells [3]; 10 μM): 81.92%
LAG-3, increase vs DMSO (CD8 T cells [3]; 10 μM): 13.15%
PD-1, increase vs DMSO (CD8 T cells [3]; 10 μM): 13.91%
intracellular IFNγ, increase vs DMSO (CD8 T cells [3]; 10 μM): 61.55%
CD25 expression, increase vs DMSO (CD4 T cells [4]; 3 μM): 14.28%
CTLA4 expression, increase vs DMSO (CD4 T cells [4]; 3 μM): 30.31%
CD25 expression, increase vs DMSO (CD4 T cells [4]; 10 μM): 11.37%
CTLA4 expression, increase vs DMSO (CD4 T cells [4]; 10 μM): 51.16%
Eotaxin (CCL11) levels, increase vs DMSO (CD3 T cells [5]; 3 μM): 19.87%
G-CSF, increase vs DMSO (CD3 T cells [5]; 3 μM): 16.64%
GM-CSF, increase vs DMSO (CD3 T cells [5]; 3 μM): 32.93%
IL-1P, increase vs DMSO (CD3 T cells [5]; 3 μM): 20.06%
IL-2 production, increase vs DMSO (CD3 T cells [5]; 3 μM): 51.36%
IL-3 secretion, increase vs DMSO (CD3 T cells [5]; 3 μM): 31.91%
IL-4 secretion, increase vs DMSO (CD3 T cells [5]; 3 μM): 26.55%
IL-6, increase vs DMSO (CD3 T cells [5]; 3 μM): 30.71%
IL-9, increase vs DMSO (CD3 T cells [5]; 3 μM): did not elicit any significant changes
IL-10, increase vs DMSO (CD3 T cells [5]; 3 μM): 52.24%
IL-12(p40) levels, increase vs DMSO (CD3 T cells [5]; 3 μM): 16.99%
IL-15 secretion, increase vs DMSO (CD3 T cells [5]; 3 μM): 16.91%
IP-10 (CXCL10) secretion, increase vs DMSO (CD3 T cells [5]; 3 μM): 28.52%
KC (CXCL1) concentrations, increase vs DMSO (CD3 T cells [5]; 3 μM): 19.27%
LIF, increase vs DMSO (CD3 T cells [5]; 3 μM): 41.71%
TNFα, increase vs DMSO (CD3 T cells [5]; 3 μM): 39.64%
VEGF, increase vs DMSO (CD3 T cells [5]; 3 μM): 51.99%
Eotaxin (CCL11) levels, increase vs DMSO (CD3 T cells [5]; 10 μM): 16.57%
G-CSF, increase vs DMSO (CD3 T cells [5]; 10 μM): 26.52%
IL-2 production, increase vs DMSO (CD3 T cells [5]; 10 μM): 31.1%
IL-3 secretion, increase vs DMSO (CD3 T cells [5]; 10 μM): 38.29%
IL-4 secretion, increase vs DMSO (CD3 T cells [5]; 10 μM): did not elicit an effect
IL-6, increase vs DMSO (CD3 T cells [5]; 10 μM): 28.38%
IL-9, increase vs DMSO (CD3 T cells [5]; 10 μM): 19.94%
IL-10, increase vs DMSO (CD3 T cells [5]; 10 μM): 58.46%
IL-12(p40) levels, increase vs DMSO (CD3 T cells [5]; 10 μM): 21.77%
IL-15 secretion, increase vs DMSO (CD3 T cells [5]; 10 μM): 15.05%
IP-10 (CXCL10) secretion, increase vs DMSO (CD3 T cells [5]; 10 μM): 73.65%
KC (CXCL1) concentrations, increase vs DMSO (CD3 T cells [5]; 10 μM): 25.62%
LIF, increase vs DMSO (CD3 T cells [5]; 10 μM): 52.21%
LIX (CXCL5), increase vs DMSO (CD3 T cells [5]; 10 μM): 20.94%
MCP-1 (CCL2), increase compared to DMSO control (CD3 T cells [5]; 10 μM): 21.29%
RANTES (CCL5), increase vs DMSO (CD3 T cells [5]; 10 μM): 29.8%
TNFα, increase vs DMSO (CD3 T cells [5]; 10 μM): 50.91%
VEGF, increase vs DMSO (CD3 T cells [5]; 10 μM): 71.18%
effector/memory CD8 compartment (CD62L−, CD44+), average increase compared to DMSO control (CD8 T cells [6]; 3 μM): 23.57%
naïve CD8 T cell compartment (CD62L+, CD44−), average reduction compared to DMSO control (CD8 T cells [6]; 3 μM): 32.54%
effector/memory CD8 compartment (CD62L−, CD44+), average increase compared to DMSO control (CD8 T cells [6]; 10 μM): 37.93%
naïve CD8 T cell compartment (CD62L+, CD44−), average reduction compared to DMSO control (CD8 T cells [6]; 10 μM): 74.69%
effector/memory CD4 T cells, increase compared to DMSO control (CD4 T cells [7]; 3 μM): 31.55%
naïve CD4 T cell compartment, reduction vs DMSO (CD4 T cells [7]; 3 μM): 41.57%
effector/memory CD4 T cells, increase compared to DMSO control (CD4 T cells [7]; 10 μM): 39.79%
naïve CD4 T cell compartment, reduction vs DMSO (CD4 T cells [7]; 10 μM): 45.61%
2-NBDG uptake (MFI), Log2 fold change compared to DMSO control (CD8 T cells [8]; 3 μM): 0.19 Log2 fold change
2-NBDG uptake, increase vs DMSO (CD8 T cells [8]; 3 μM): 13.92%
2-NBDG uptake (MFI), Log2 fold change compared to DMSO control (CD8 T cells [8]; 10 μM): 0.24 Log2 fold change
2-NBDG uptake, increase vs DMSO (CD8 T cells [8]; 10 μM): 17.74%
interaction with the cytochrome family of enzymes [9]: strong safety profiles
macrophage accumulation [10]: significant decrease in macrophage accumulation
